# According to publication PMC10120551, “Novel Glu-based pyrazolo[3,4-d]pyrimidine analogues: design, synthesis and biological evaluation as DHFR and TS dual inhibitors” (Journal of Enzyme Inhibition and Medicinal Chemistry, 2023):
# Assays:
# SK-MEL-28 = assay: cells; settings: Homo sapiens
# SR = assay: cells; settings: Homo sapiens
# SF-539 = assay: cells; settings: Homo sapiens
# SF-268 = settings: SF-268, CNS cancer; five-dose 0.01–100 µM
# M14 [1] = settings: M14, Melanoma; five-dose 0.01–100 µM
# M14 [2] = assay: cells; settings: Homo sapiens
# A498 = assay: cells; settings: Homo sapiens
# IGROV1 = assay: cells; settings: Homo sapiens
# OVCAR-4 = settings: OVCAR-4, Ovarian cancer; five-dose 0.01–100 µM
# RXF 393 = assay: cells; settings: Homo sapiens
# COLO 205 = assay: cells; settings: Homo sapiens
# HL-60(TB) = assay: cells; settings: Homo sapiens
# UACC-257 = settings: UACC-257, Melanoma; five-dose 0.01–100 µM
# A549/ATCC = assay: cells; settings: Homo sapiens
# ACHN = assay: cells; settings: Homo sapiens
# PC-3 (Prostate cancer) = assay: MTT cytotoxicity assay; type: cell-based, human
# Experimental: (§1) The MTT assay was carried out according to the procedure cited earlier. Briefly, in a 96-well plate, either cancer or normal cells were seeded (10^6 cells/cm^2; 100 µL/well) and incubated for 12 h at 37 °C and CO2 (5%), then serial dilutions of compound 6i were added and incubated for 48 h using DMSO control (0.5% V/V). MTT (3-(4,5-dimethylthiazoyl)-2,5-diphenyl-tetrazolium bromide; Cat. No. M-5655) 5 mg/mL was then added. After 4 h incubation, the formed MTT formazan crystals were solubilised by 10% Triton X-100 plus 0.1 N HCl in anhydrous isopropanol. The absorbance was read using a Bioline plate reader at λ570–630 nm[25–29]. The selectivity of 6i towards HSF cells was also determined as follows[30]^,[31]: SI=IC50HSF cells/IC50of cancer cells
# OVCAR-3 (Ovarian Cancer) = assay: MTT cytotoxicity assay; type: cell-based, human; settings: for IC50: OVCAR-3, MTT, 48 h, mean ± SD from triplicates
# Experimental: as §1
# MCF-7 (Breast cancer) = assay: MTT cytotoxicity assay; type: cell-based, human
# Experimental: as §1
# SN12C = assay: cells; settings: Homo sapiens
# K-562 = assay: cells; settings: Homo sapiens
# MCF-7 cells = assay: Apoptosis analysis (annexin-V/PI, flow cytometry); type: cell-based, human; settings: MCF-7, 10 µM, 24 h; DMSO control 0.29%
# Experimental: Figure 5. Flow cytometric analyses: cell cycle distribution analysis using PI staining method in which MCF-7 cells were treated by 6i (10 µM) and DMSO (negative control; NC) for 48 h; (A) 6i, (B) DMSO, (C) cells percentage in different phases (G0-G1, S, G2/M); apoptotic induction using annexin-V-FITC/PI staining method in which cancer cells were treated by 6i (10 µM) and DMSO (negative control; NC) for 24 h; (D) 6i, (E) DMSO, (F) histogram for induction of apoptosis.
# Again, MCF-7 cells were treated with 6i (10 µM) to assess its effect on cell apoptosis. As shown in Figure 5(D,E), the fraction of cells in early apoptosis were 26.27% and 0.43%, while in late apoptosis, they were 8.90% and 0.29% for compound 6i and DMSO control, respectively. The obtained results hinted that compound 6i could induce apoptotic pathways. However, the ratio of apoptosis inferred that the anti-proliferative effect of compound 6i was largely dependent on apoptosis.
# The MCF-7 cells (10^6 cells/ml) were treated with either 10 µM of 6i or DMSO (NC) for 24 h. After that, the cells were trypsinised, collected, washed, and stained with PE-Annexin-V (BioVision, K101-25) in the presence of PI[67]. The induction of apoptosis was analysed by flow cytometry using BD FACS Calibur[67].
compound,measurement,setting,value
CCOC(=O)CC[C@H](NC(=O)c1ccc(NC(=O)Cn2cnc3c(c(C)nn3-c3ccc(Br)cc3)c2=O)cc1)C(=O)OCC [Compound 6i],GI50,SK-MEL-28; SK-MEL-28,10.1 µM
same,CC50,"SK-MEL-28; SK-MEL-28, read-out: LC50",50.2 µM
same,GI50,SR,71 µM
same,CC50,SR; read-out: LC50,> 100 µM
same,GI50,SF-539; SF-539,14.8 µM
same,CC50,"SF-539; SF-539, read-out: LC50",73.6 µM
same,TGI,SF-268,32.8 µM
same,TGI,M14 [1],>100 µM
same,GI50,M14 [2]; M14,> 100 µM
same,CC50,"M14 [2]; M14, read-out: LC50",> 100 µM
same,GI50,A498; A498,24.9 µM
same,CC50,"A498; A498, read-out: LC50",93 µM
same,GI50,IGROV1; IGROV-1,23.9 µM
same,CC50,"IGROV1; IGROV-1, read-out: LC50",> 100 µM
same,TGI,OVCAR-4,32.1 µM
same,GI50,RXF 393; RXF 393,15.9 µM
same,CC50,"RXF 393; RXF 393, read-out: LC50",> 100 µM
same,GI50,COLO 205; COLO 205,14 µM
same,CC50,"COLO 205; COLO 205, read-out: LC50",96 µM
same,GI50,HL-60(TB); HL-60,> 100 µM
same,CC50,"HL-60(TB); HL-60, read-out: LC50",> 100 µM
same,TGI,UACC-257,>100 µM
same,GI50,A549/ATCC; A549,9.81 µM
same,CC50,"A549/ATCC; A549, read-out: LC50",> 100 µM
same,GI50,ACHN,15.1 µM
same,CC50,ACHN; read-out: LC50,78.3 µM
same,IC50,"PC-3 (Prostate cancer); Homo sapiens, PC-3, MTT, 48 h, mean ± SD from triplicates",12.4 ± 0.62 µM
same,Selectivity index,PC-3 (Prostate cancer); IC50 HSF cells / IC50 PC-3,3.91
same,IC50,"OVCAR-3 (Ovarian Cancer); Homo sapiens, OVCAR-3, 48 h",11.5 µM
same,Selectivity index,OVCAR-3 (Ovarian Cancer); IC50 HSF cells / IC50 OVCAR-3,4.21
same,IC50,OVCAR-3 (Ovarian Cancer),11.5 ± 0.58 µM
same,IC50,"MCF-7 (Breast cancer); Homo sapiens, MCF7, MCF-7, MTT, 48 h, mean ± SD from triplicates",4.4 ± 0.26 µM
same,Selectivity index,MCF-7 (Breast cancer); IC50 HSF cells / IC50 MCF-7,11.02
same,GI50,SN12C,29.2 µM
same,CC50,SN12C; read-out: LC50,> 100 µM
same,GI50,K-562; K562,> 100 µM
same,CC50,"K-562; K562, read-out: LC50",> 100 µM
same,fraction of cells in late apoptosis,MCF-7 cells,8.90%
